Experimental data: patent US20230113511A1, “USE OF TMAVA ANTAGONIST AND SYSTEM FOR DIAGNOSING FATTY LIVER OR HEART FAILURE” (ProgLead, Inc, priority 2020, published 2023)

Columns and labels:
[1] = target: T1, γ-isopropylbetaine hydroxylase (Bbox) (Homo sapiens, UniProt O75936); assay: Bbox immobilized on a graphene surface and contacted with TMAVA; type: binding; settings: in a similar way as γ-BB to Bbox
T1 sequence (O75936 1-387): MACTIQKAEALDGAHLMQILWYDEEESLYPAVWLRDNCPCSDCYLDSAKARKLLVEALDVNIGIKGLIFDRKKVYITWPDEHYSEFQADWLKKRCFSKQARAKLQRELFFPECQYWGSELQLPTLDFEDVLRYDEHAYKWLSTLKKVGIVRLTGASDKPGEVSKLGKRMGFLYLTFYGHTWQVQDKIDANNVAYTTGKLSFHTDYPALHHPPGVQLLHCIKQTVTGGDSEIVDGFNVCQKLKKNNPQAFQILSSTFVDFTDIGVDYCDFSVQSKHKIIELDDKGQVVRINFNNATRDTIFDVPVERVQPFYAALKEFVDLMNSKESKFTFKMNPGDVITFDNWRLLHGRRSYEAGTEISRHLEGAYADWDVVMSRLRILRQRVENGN

mice [2] = assay: Lipidolysis in high-fat diet mice given TMAVA in drinking water for 8 weeks; type: in vivo
Description: Mice in an experimental group were given a high-fat diet and drinking water dissolved with 0.325% (mass/volume %) TMAVA; and mice in a control group were given a high-fat diet and normal drinking water. After 8 weeks, the mice in the experimental group and the control group were sacrificed and tested.

[3] = target: T2, γ-isopropylbetaine hydroxylase (Bbox) (Mus musculus, UniProt Q924Y0); assay: d9 carnitine formation from d9-γ-BB in high-fat diet mice given TMAVA; type: in vivo; settings: 0.325% TMAVA in drinking water and d9-γ-BB, 8 weeks
T2 construct: from tissue; host or cells: whole animal (mice on high-fat diet)
T2 sequence (Q924Y0 1-387): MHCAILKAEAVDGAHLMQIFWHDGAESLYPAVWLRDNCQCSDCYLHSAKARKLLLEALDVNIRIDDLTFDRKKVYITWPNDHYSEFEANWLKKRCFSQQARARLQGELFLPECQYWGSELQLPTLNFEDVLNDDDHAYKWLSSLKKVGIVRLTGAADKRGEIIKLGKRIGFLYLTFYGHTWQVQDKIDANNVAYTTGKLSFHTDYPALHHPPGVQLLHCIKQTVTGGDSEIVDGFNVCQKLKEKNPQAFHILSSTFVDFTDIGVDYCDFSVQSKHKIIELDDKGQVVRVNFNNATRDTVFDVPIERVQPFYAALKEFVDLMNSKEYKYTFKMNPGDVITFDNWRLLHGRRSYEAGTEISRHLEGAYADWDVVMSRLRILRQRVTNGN
Description: Endogenous carnitine synthesis played an important role in physiological dynamic equilibrium. A carnitine precursor (γ-BB) was hydroxylated by y-isopropylbetaine hydroxylase (Bbox) to produce carnitine.
Mice in an experimental group were given a high-fat diet, drinking water dissolved with 0.325% (mass/volume %) TMAVA, and d9-γ-BB; and mice in the control group were given a high-fat diet, normal drinking water, and d9-γ-BB. After 8 weeks, the mice in the experimental group and the control group were sacrificed and tested.

mice [4] = assay: Carnitine absorption: d9-carnitine by gavage in TMAVA-treated mice; type: in vivo
mice [5] = assay: High-fat diet mice given TMAVA in drinking water for 8 weeks (fatty liver and myocardial hypertrophy); type: in vivo
Description: Mice in an experimental group were given a high-fat diet and drinking water dissolved with 0.325% (mass/volume %) TMAVA for 8 weeks; and mice in a control group were given a high-fat diet and normal drinking water. After 8 weeks, the mice in the experimental group and the control group were sacrificed and tested.

[6] = target: T1, γ-isopropylbetaine hydroxylase (Bbox); assay: Binding affinity of Bbox and TMAVA by surface plasmon resonance; settings: read-out: separation rate coefficient constant (binding affinity of Bbox and TMAVA)
mice [7] = assay: Exogenous carnitine supplementation in TMAVA-induced fatty liver and myocardial hypertrophy in mice; type: in vivo; settings: high-fat diet, 0.325% TMAVA plus 0.325% carnitine in drinking water, 8 weeks
Description: Mice were given a high-fat diet and drinking water containing 0.325% (mass/volume %) TMAVA; at the same time, one group was given TMAVA with 0.325% (mass/volume %) carnitine added to the drinking water (carnitine supplementation group).

intestinal flora = assay: Co-incubation of conventionally raised mice feces with TML; settings: different concentrations of TML, sterilized feces had no such effect
mice [8] = assay: TML added to the drinking water of mice, urine TMAVA; type: in vivo
Description: The antibiotic-treated mice were then placed in conventional cages with normal (non-sterile) mice to colonize the intestinal flora.

DavA and DavB proteins = target: T3, DavA and DavB proteins (Pseudomonas putida, UniProt Q88QV1); settings: purified DavA and DavB proteins from recombinant Escherichia coli strains
T3 sequence (Q88QV1 1-560): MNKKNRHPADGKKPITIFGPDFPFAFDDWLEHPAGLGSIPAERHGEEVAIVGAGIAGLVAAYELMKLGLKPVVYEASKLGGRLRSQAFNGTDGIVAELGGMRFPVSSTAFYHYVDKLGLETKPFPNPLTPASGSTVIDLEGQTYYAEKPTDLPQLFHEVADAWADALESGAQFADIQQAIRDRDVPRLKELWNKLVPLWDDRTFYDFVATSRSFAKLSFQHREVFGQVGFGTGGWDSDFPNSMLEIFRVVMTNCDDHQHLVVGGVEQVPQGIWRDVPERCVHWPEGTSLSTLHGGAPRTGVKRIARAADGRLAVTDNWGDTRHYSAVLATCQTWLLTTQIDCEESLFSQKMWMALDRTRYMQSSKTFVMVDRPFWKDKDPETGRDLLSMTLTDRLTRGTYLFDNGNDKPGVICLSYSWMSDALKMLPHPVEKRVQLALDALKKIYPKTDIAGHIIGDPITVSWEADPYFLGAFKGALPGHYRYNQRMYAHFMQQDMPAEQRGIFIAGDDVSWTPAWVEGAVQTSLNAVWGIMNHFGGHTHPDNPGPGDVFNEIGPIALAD

mice [9] = assay: d9-TML by gavage in mice, plasma d9-TMAVA; type: in vivo
[10] = histological analysis, 0.325% TMAVA

## C[N+](C)(C)CCCCC(=O)[O-] [TMAVA, N,N,N-trimethyl-5-aminovaleric acid]
[1]
  binding of TMAVA to Bbox on graphene surface: can bind to Bbox
Mice [2]; 0.325% TMAVA in drinking water
  level of free fatty acid in the blood compared with control group: higher
  weight of the mice, decrease compared with control group: 30%
Mice [2]; [10]
  percentage of large and medium-sized fat cells in the subcutaneous fat: decreased
  percentage of small fat cells in the subcutaneous fat: increased
[3]
  level of d9 carnitine compared with control group: significantly lower
Mice [4]
  level of d9-carnitine in the plasma compared with normal mice: significantly lower
Mice [5]; 0.325% (mass/volume %) TMAVA in drinking water
  concentration of TMAVA in the plasma and various tissues, increase compared with control group: 10 times
Mice [5]; 0.325% TMAVA in drinking water
  cardiac systolic function: significantly reduced
  concentration of aspartate aminotransferase in the plasma compared with control group: higher
  level of triglyceride in the liver and heart tissues compared with control group: significantly higher
  lipid droplet content in the liver and heart tissues (oil red O) compared with control group: higher
  liver and heart size compared with control group: significantly larger
Mice [5]; fasting state, 0.325% TMAVA in drinking water
  content of triglyceride in the plasma compared with control group: significantly higher
[6]
  Kd: 9.8 µM

## C[N+](C)(C)CC(O)CC(=O)[O-] (centres unmarked) [carnitine]
Mice [7]
  aspartate aminotransferase after carnitine supplementation: 50 U/L
  cardiac systolic function: significantly improved
  content of triglyceride in the liver tissues, decrease: 20%
  level of free fatty acid in the plasma: decreased
  level of triglyceride in the plasma, decrease: 50%
  lipid content in the liver tissues (oil red O): decreased
  weight of the heart: significantly reduced

## C[N+](C)(C)CCCC[C@H](N)C(=O)O [TML, Trimethyllysine]
Intestinal flora
  TMAVA level on co-incubation of feces with TML: increased over time and concentration
Mice [8]
  TMAVA level in urine: increased
DavA and DavB proteins
  TMAVA production in vitro from TML: time-dependently produced

## [2H]C([2H])([2H])[N+](CCCCC(N)C(=O)[O-])(C([2H])([2H])[2H])C([2H])([2H])[2H] (centres unmarked) [d9-TML]
Mice [9]
  plasma level of d9-TMAVA after d9-TML: increase over time
